From patent US11078204B2, “Heterocyclic derivatives as PI3K inhibitors” (Incyte Corporation, priority 2018, dated 2021)
Counter-ions that a name gives are not always drawn.

Tests used:
[1] = biological target: PI3Kδ (p110δ/p85α) Recombinant Human Protein (Homo sapiens (Human), UniProt O00329); assay: PI3Kδ Scintillation Proximity Assay; assay type: biochemical; conditions: 20 μM PIP2, 2 μM ATP, 3.4 nM PI3Kδ, 120 min
Excerpt: Example C. PI3Kδ Scintillation Proximity Assay
(§1) [γ-^33P]ATP (10 mCi/mL) and Wheat Germ Agglutinin (WGA) YSi SPA Scintillation Beads was purchased from Perkin Elmer (Waltham, Mass.). Lipid kinase substrate, D-myo-Phosphatidylinositol 4,5-bisphosphate (PtdInS(4,5)P2)D (+)-sn-1,2-di-O-octanoylglyceryl, 3-O-phospho linked (PIP2), CAS 204858-53-7, was purchased from Echelon Biosciences (Salt Lake City, Utah). PI3Kδ (p110δ/p85α) Recombinant Human Protein was purchased from Eurofins (St Charles, Mo.). ATP, MgCl2, DTT, EDTA, MOPS and CHAPS were purchased from Sigma Aldrich (St. Louis, Mo.).
(§2) The kinase reaction was conducted in polystyrene 384-well Greiner Bio-one white plate from Thermo Fisher Scientific in a final volume of 25 μL. Inhibitors were first diluted serially in DMSO and added to the plate wells before the addition of other reaction components. The final concentration of DMSO in the assay was 2%. The PI3Kδ assay was carried out at room temperature in 20 mM MOPS, pH 6.7, 10 mM MgCl2, 5 mM DTT and CHAPS 0.03%. Reactions were initiated by the addition of ATP, the final reaction mixture consisted of 20 μM PIP2, 2 μM ATP, 0.5 μCi [γ-^33P]ATP, 3.4 nM PI3Kδ. Reactions were incubated for 120 min and terminated by the addition of 40 μL SPA beads suspended in quench buffer: 163 mM potassium phosphate pH 7.8, 20% glycerol, 25 mM EDTA. The final concentration of SPA beads is 1.0 mg/mL. After the plate sealing, plates were shaken overnight at room temperature and centrifuged at 1500 rpm for 10 min, the radioactivity of the product was determined by scintillation counting on Topcount (PerkinElmer). IC50 determination was performed by fitting the curve of percent of the solvent control activity versus the log of the inhibitor concentration using the GraphPad Prism 6.0 software.

[2] = biological target: PI3Kγ (p110γ) Recombinant Human Protein (Homo sapiens (Human), UniProt P48736); assay: PI3K-γ Scintillation Proximity Assay; assay type: biochemical; conditions: 20 μM PIP2, 2 μM ATP, 13 nM PI3Kγ, 120 min
Sequence of PI3Kγ (p110γ) Recombinant Human Protein (P48736 whole entry): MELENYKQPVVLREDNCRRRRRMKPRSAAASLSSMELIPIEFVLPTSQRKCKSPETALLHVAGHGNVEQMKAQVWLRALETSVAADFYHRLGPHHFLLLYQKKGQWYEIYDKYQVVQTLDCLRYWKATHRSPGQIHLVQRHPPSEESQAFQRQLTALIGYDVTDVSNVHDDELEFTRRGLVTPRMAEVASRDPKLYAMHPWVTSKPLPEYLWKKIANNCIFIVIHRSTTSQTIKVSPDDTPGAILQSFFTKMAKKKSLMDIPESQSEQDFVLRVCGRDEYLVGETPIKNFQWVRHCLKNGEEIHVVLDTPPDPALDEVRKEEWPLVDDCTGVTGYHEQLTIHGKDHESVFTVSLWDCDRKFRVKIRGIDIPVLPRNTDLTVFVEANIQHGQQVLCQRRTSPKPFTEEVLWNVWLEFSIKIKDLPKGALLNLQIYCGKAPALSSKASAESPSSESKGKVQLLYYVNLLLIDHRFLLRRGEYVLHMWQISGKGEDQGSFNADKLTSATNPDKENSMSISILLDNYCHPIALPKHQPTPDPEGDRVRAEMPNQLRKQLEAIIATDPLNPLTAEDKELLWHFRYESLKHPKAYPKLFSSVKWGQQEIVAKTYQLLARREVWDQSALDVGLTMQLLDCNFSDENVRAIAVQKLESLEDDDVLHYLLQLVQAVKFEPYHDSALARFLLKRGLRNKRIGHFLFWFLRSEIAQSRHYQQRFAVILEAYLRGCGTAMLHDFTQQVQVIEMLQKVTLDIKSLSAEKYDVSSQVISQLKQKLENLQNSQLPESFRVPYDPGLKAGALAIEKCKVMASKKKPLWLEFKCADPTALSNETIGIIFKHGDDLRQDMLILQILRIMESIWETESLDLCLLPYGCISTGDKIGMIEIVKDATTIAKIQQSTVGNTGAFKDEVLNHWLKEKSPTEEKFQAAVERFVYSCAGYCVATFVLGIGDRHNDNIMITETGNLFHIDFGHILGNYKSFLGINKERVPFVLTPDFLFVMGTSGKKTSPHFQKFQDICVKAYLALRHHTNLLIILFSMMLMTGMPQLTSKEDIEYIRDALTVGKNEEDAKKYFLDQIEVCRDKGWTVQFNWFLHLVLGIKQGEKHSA
Excerpt: Example B. PI3K-γ Scintillation Proximity Assay
as §1, with “PI3Kγ (p110γ)” for “PI3Kδ (p110δ/p85α)”, “Life technology (Grand Island, N.Y.).” for “Eurofins (St Charles, Mo.).”
as §2, with “PI3Kγ” for “PI3Kδ”, “[γ-^33p]ATP, 13” for “[γ-^33P]ATP, 3.4”, “PI3Kγ.” for “PI3Kδ.”

Sequence of PI3Kδ (p110δ/p85α) Recombinant Human Protein (O00329 whole entry): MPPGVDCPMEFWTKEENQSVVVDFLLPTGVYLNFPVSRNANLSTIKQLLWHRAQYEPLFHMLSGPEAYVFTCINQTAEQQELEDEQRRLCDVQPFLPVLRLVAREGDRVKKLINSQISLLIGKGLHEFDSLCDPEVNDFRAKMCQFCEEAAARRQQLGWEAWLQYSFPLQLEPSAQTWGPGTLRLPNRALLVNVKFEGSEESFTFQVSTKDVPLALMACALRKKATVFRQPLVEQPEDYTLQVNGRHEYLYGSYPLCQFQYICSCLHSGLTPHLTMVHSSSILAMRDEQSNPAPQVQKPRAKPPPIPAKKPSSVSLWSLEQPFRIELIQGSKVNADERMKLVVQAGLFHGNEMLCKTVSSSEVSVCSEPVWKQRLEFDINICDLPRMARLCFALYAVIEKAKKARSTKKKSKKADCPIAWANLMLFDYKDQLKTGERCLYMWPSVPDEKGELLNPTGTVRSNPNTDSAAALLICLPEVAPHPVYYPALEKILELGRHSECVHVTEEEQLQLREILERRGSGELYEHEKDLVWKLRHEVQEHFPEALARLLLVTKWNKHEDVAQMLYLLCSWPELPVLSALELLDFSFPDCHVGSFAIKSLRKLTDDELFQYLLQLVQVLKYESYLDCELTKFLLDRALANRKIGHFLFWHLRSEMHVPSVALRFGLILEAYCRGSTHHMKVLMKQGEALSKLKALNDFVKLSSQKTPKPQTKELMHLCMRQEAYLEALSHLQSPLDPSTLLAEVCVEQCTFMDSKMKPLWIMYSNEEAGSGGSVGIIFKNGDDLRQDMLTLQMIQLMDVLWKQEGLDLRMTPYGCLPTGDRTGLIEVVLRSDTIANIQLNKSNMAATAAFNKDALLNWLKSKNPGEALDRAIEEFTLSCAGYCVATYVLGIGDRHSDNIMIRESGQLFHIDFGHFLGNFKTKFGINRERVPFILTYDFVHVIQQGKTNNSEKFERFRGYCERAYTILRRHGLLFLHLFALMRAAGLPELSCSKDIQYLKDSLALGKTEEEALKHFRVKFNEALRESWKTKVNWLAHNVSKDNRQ
Sequence of PI3Kδ (p110δ/p85α) Recombinant Human Protein (P27986 whole entry partner): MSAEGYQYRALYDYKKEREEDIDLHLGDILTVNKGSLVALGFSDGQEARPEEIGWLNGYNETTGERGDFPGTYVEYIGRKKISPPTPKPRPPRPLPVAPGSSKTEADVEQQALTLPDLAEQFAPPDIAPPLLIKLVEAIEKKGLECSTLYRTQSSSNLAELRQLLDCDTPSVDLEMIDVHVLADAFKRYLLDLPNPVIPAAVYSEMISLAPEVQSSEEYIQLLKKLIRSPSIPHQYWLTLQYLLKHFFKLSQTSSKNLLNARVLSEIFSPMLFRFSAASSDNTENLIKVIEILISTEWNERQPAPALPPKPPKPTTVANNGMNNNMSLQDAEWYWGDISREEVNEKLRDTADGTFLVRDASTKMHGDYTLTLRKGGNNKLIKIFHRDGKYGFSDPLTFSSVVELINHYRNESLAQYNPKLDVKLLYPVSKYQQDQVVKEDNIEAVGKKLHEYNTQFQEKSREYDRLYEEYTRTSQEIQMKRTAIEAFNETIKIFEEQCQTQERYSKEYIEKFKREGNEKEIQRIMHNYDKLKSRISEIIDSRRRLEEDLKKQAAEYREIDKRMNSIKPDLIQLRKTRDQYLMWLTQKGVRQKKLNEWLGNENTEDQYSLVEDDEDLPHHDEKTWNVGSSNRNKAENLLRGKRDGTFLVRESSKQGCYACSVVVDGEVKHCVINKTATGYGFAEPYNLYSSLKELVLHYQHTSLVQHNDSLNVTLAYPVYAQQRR

CC(c1cn2cc(-c3cnc4c(N)ncnn34)ccc2n1)C1CC1 (stereo not shown) [Example 27, 7-(2-(1-Cyclopropylethyl)imidazo[1,2-a]pyridin-6-yl)imidazo[2,1-f][1,2,4]triazin-4-amine trifluoroacetate salt]
IC50 [1]: ≥ 2 µM | IC50 [2]: ≤ 0.1 µM

CC(C)c1cn2cc(-c3cnc4c(N)ncnn34)ccc2n1 [Example 22, 7-(2-isopropylimidazo[1,2-a]pyridin-6-yl)imidazo[2,1-f][1,2,4]triazin-4-amine]
IC50 [1]: ≥ 2 µM | IC50 [2]: ≤ 0.5 µM

CC(c1ccccc1)N1Cc2cc(-c3cnc4c(N)nc(C(F)(F)F)cn34)ccc2C1=O (racemic) [Example 11, 5-(8-Amino-6-(trifluoromethyl)imidazo[1,2-a]pyrazin-3-yl)-2-(1-phenylethyl)isoindolin-1-one 1.4× trifluoroacetate salt]
IC50 [1]: ≥ 2 µM | IC50 [2]: ≤ 0.1 µM

C[C@@H](C1CC1)N1Cc2cc(-c3cnc4c(N)nc(C(=O)N5CC(O)C5)cn34)ccc2C1=O (single isomer, unassigned) [Example 30, trifluoroacetate salt]
IC50 [1]: ≥ 2 µM | IC50 [2]: ≤ 0.1 µM

CC(C)(C)OC(=O)NCC(C1CC1)N1Cc2cc(-c3cnc4c(N)nc(C(F)(F)F)cn34)ccc2C1=O (racemic) [Example 41, tert-Butyl (2-(5-(8-amino-6-(trifluoromethyl)imidazo[1,2-a]pyrazin-3-yl)-1-oxoisoindolin-2-yl)-2-cyclopropylethyl)carbamate]
IC50 [1]: ≥ 2 µM | IC50 [2]: ≤ 0.5 µM

CC(C)c1cc2nc(-c3cnc4c(N)ncnn34)ccn2n1 [Example 24, 7-(2-Isopropylpyrazolo[1,5-a]pyrimidin-5-yl)imidazo[2,1-f][1,2,4]triazin-4-amine trifluoroacetate salt]
IC50 [1]: ≥ 2 µM | IC50 [2]: < 2 µM

CC(C1CC1)n1cc2cc(-c3cnc4c(N)ncnn34)ncc2n1 (stereo not shown) [Example 26, 7-(2-(1-Cyclopropylethyl)-2H-pyrazolo[3,4-c]pyridin-5-yl)imidazo[2,1-f][1,2,4]triazin-4-amine, trifluoroacetate]
IC50 [1]: ≥ 2 µM | IC50 [2]: ≤ 0.1 µM

Nc1nc(C(F)(F)F)cn2c(-c3ccc4c(c3)CNC4=O)cnc12 [Example 4, 5-(8-Amino-6-(trifluoromethyl)imidazo[1,2-a]pyrazin-3-yl)isoindolin-1-one trifluoroacetate salt]
IC50 [1]: < 2 µM | IC50 [2]: < 2 µM

CC(=O)NCC(C1CC1)N1Cc2cc(-c3cnc4c(N)nc(C(F)(F)F)cn34)ccc2C1=O (racemic) [Example 44, N-(2-(5-(8-Amino-6-(trifluoromethyl)imidazo[1,2-a]pyrazin-3-yl)-1-oxoisoindolin-2-yl)-2-cyclopropylethyl)acetamide, trifluoroacetate salt]
IC50 [1]: ≥ 2 µM | IC50 [2]: < 2 µM

CCN1Cc2cc(-c3cnc4c(N)nc(C(F)(F)F)cn34)ccc2C1=O [Example 9, 5-(8-Amino-6-(trifluoromethyl)imidazo[1,2-a]pyrazin-3-yl)-2-ethylisoindolin-1-one trifluoroacetate salt]
IC50 [1]: < 2 µM | IC50 [2]: ≤ 0.5 µM

CC(C)c1cc2cc(-c3cnc4c(N)ncnn34)ccn2n1 [Example 23, 7-(2-Isopropylpyrazolo[1,5-a]pyridin-5-yl)imidazo[2,1-f][1,2,4]triazin-4-amine trifluoroacetate salt]
IC50 [1]: ≥ 2 µM | IC50 [2]: ≤ 0.5 µM

Nc1nc(C(F)(F)F)cn2c(-c3ccc4c(c3)CN(C(C(=O)O)C3CC3)C4=O)cnc12 (racemic) [Example 47, 2-(5-(8-Amino-6-(trifluoromethyl)imidazo[1,2-a]pyrazin-3-yl)-1-oxoisoindolin-2-yl)-2-cyclopropylacetic acid, trifluoroacetate salt]
IC50 [1]: ≥ 2 µM | IC50 [2]: < 2 µM

CNC(=O)C(C1CC1)N1Cc2cc(-c3cnc4c(N)nc(C(F)(F)F)cn34)ccc2C1=O (racemic) [Example 45, 2-(5-(8-Amino-6-(trifluoromethyl)imidazo[1,2-a]pyrazin-3-yl)-1-oxoisoindolin-2-yl)-2-cyclopropyl-N-methylacetamide, trifluoroacetate salt]
IC50 [1]: ≥ 2 µM | IC50 [2]: < 2 µM

NCC(C1CC1)N1Cc2cc(-c3cnc4c(N)nc(C(F)(F)F)cn34)ccc2C1=O (racemic) [Example 42, 2-(2-Amino-1-cyclopropylethyl)-5-(8-amino-6-(trifluoromethyl)imidazo[1,2-a]pyrazin-3-yl)isoindolin-1-one, trifluoroacetate salt]
IC50 [1]: ≥ 2 µM | IC50 [2]: < 2 µM

CC(C1CC1)n1nc2ccc(-c3cnc4c(N)ncnn34)cc2n1 (racemic) [Example 20, 7-(2-(1-cyclopropylethyl)-2H-benzo[d][1,2,3]triazol-5-yl)imidazo[2,1-f][1,2,4]triazin-4-amine trifluoroacetate salt]
IC50 [1]: ≥ 2 µM | IC50 [2]: ≤ 0.5 µM

CS(=O)(=O)NCC(C1CC1)N1Cc2cc(-c3cnc4c(N)nc(C(F)(F)F)cn34)ccc2C1=O (racemic) [Example 43, N-(2-(5-(8-Amino-6-(trifluoromethyl)imidazo[1,2-a]pyrazin-3-yl)-1-oxoisoindolin-2-yl)-2-cyclopropylethyl)methanesulfonamide, trifluoroacetate salt]
IC50 [1]: ≥ 2 µM | IC50 [2]: < 2 µM

Nc1nc(C(F)(F)F)cn2c(-c3ccc4c(c3)CN(C(CO)C3CC3)C4=O)cnc12 (racemic) [Example 46, 5-(8-Amino-6-(trifluoromethyl)imidazo[1,2-a]pyrazin-3-yl)-2-(1-cyclopropyl-2-hydroxyethyl)isoindolin-1-one, trifluoroacetate salt]
IC50 [1]: ≥ 2 µM | IC50 [2]: ≤ 0.5 µM

CC(C)c1nc2ccc(-c3cnc4c(N)ncnn34)cn2n1 [Example 21, 7-(2-Isopropyl-[1,2,4]triazolo[1,5-a]pyridin-6-yl)imidazo[2,1-f][1,2,4]triazin-4-amine trifluoroacetate salt]
IC50 [1]: ≥ 2 µM | IC50 [2]: ≤ 0.5 µM

Cc1cc(-c2cnc3c(N)ncnn23)cc2cnn(C(C)C3CC3)c12 (stereo not shown) [Example 19, 7-(1-(1-Cyclopropylethyl)-7-methyl-1H-indazol-5-yl)imidazo[2,1-f][1,2,4]triazin-4-amine trifluoroacetate salt]
IC50 [1]: ≥ 2 µM | IC50 [2]: ≤ 0.5 µM

CCN1Cc2cc(-c3cnc4c(N)ncnn34)ccc2C1=O [Example 10, 5-(4-Aminoimidazo[2,1-f][1,2,4]triazin-7-yl)-2-ethylisoindolin-1-one trifluoroacetate salt]
IC50 [1]: < 2 µM | IC50 [2]: ≤ 0.5 µM
